From ChEMBL document CHEMBL1177838, “Synthesis and antiproliferative activity of indolizine derivatives incorporating a cyclopropylcarbonyl group against Hep-G2 cancer cell line” (Eur J Med Chem, 2010)
In brackets after ≈: the same amount, converted by molar mass.

What was measured:
HepG2 = experiment: cells; conditions: Homo sapiens, HepG2, 48 h
Description: Cytotoxicity against human HepG2 cells after 48 hrs by MTT assay

[1] = molecular target: Epidermal growth factor receptor (Homo sapiens, UniProt P00533); experiment: Inhibition of human EGFR autophosphorylation expressed in Sf9 cells DELFIA assay; format: cell-based
Epidermal growth factor receptor, sequence (P00533 whole entry): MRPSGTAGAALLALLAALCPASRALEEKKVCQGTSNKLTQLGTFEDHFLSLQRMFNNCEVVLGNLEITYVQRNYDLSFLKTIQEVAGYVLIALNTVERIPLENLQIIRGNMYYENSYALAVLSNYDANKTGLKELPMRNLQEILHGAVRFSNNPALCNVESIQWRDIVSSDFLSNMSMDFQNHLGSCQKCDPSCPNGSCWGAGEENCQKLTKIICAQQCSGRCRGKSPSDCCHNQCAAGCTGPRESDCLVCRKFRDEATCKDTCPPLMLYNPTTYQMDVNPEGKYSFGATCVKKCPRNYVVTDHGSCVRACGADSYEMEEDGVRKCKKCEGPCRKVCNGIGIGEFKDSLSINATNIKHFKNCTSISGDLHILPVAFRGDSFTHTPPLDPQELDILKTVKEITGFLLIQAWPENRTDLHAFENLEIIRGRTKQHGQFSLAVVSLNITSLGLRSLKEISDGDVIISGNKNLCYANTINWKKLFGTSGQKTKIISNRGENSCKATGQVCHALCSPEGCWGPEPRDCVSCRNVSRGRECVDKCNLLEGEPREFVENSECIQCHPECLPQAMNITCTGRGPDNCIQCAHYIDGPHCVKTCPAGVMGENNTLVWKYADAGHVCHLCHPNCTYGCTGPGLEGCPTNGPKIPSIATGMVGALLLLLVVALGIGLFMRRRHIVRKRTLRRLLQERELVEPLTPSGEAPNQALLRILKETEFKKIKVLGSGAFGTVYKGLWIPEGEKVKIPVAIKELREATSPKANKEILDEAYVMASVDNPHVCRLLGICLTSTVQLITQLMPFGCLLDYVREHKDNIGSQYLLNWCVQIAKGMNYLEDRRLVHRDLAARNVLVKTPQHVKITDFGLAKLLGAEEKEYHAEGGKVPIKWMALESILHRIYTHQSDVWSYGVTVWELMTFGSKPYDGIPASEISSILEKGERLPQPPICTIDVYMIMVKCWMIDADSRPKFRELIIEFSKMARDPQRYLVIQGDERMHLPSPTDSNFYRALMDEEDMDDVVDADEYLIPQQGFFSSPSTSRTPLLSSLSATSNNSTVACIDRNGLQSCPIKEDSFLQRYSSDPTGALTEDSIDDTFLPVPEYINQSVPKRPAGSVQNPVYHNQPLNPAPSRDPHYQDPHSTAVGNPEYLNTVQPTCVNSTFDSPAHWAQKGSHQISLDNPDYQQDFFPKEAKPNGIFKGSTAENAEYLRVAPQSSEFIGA

| SMILES | IC50 (HepG2) | IC50 [1] |
| --- | --- | --- |
| COC(=O)c1cc(C(=O)C2CC2)n2ccc(C)cc12 | 25 µg/mL (≈ 97.2 µM) | – |
| COC(=O)c1cc(C(=O)C2CC2)n2c(Br)cccc12 | 2.5 µg/mL (≈ 7.76 µM) | – |
| O=C(Nc1ccccc1)c1cc(C(=O)C2CC2)n2ccccc12 | 0.56 µg/mL (≈ 1.84 µM) | – |
| N#Cc1cc(C(=O)C2CC2)n2ccccc12 | 0.32 µg/mL (≈ 1.52 µM) | – |
| COC(=O)c1cc(C(=O)C2CC2)n2ccccc12 | 6.6 µg/mL (≈ 27.1 µM) | – |
| COC(=O)c1cc(C(=O)C2CC2)n2ccc3ccccc3c12 | 9.3 µg/mL (≈ 31.7 µM) | – |
| Cc1ccn2c(C(=O)C3CC3)cc(C#N)c2c1 | 21 µg/mL (≈ 93.6 µM) | – |
| COC(=O)c1cc(C(=O)C2CC2)n2c(C)ccc(Br)c12 | 1.1 µg/mL (≈ 3.27 µM) | – |
| Cc1ccc(Br)c2c(C#N)cc(C(=O)C3CC3)n12 | 0.2 µg/mL (≈ 0.66 µM) | 85 nM |
| COC(=O)c1cc(C(=O)C2CC2)n2c1ccc1ccccc12 | 4.6 µg/mL (≈ 15.7 µM) | – |
| COC(=O)c1c(C(=O)OC)c2c3ccccc3ccn2c1C(=O)C1CC1 | 27 µg/mL (≈ 76.8 µM) | – |
| CCOC(=O)c1c(C(=O)OCC)c2cc(C)ccn2c1C(=O)C1CC1 | 0.29 µg/mL (≈ 0.845 µM) | – |
| O=C(c1c2c(c3ccccn13)C(=O)N(c1ccccc1)C2=O)C1CC1 | 0.48 µg/mL (≈ 1.45 µM) | – |
| N#Cc1cc(C(=O)C2CC2)n2c1ccc1ccccc12 | 2.1 µg/mL (≈ 8.07 µM) | – |
| N#Cc1cc(C(=O)C2CC2)n2c1ccc1nccn12 | 15 µg/mL (≈ 59.9 µM) | – |
| N#Cc1cc(C(=O)C2CC2)n2ccc3ccccc3c12 | 4.3 µg/mL (≈ 16.5 µM) | – |
| COC(=O)c1cc(C(=O)C2CC2)n2c1ccc1nccn12 | 25 µg/mL (≈ 88.2 µM) | – |
| N#Cc1cc(C(=O)C2CC2)n2c(Br)cccc12 | 1.8 µg/mL (≈ 6.23 µM) | – |
| CCOC(=O)c1c(C(=O)OCC)c2ccccn2c1C(=O)C1CC1 | 32 µg/mL (≈ 97.2 µM) | – |
